For data set [1], the target named is T1, BPTF-BRD-Nluc (Homo sapiens, UniProt Q12830). In words: Competition NanoBRET target engagement, inhibitors vs MS-1 tracer on BPTF-BRD-Nluc in HEK293T cells. The following applies: for inhibition of the BPTF-BRD in NanoBRET titration: BPTF-BRD-Nluc, 0.5 μM MS-1. A general note: In BRET a luciferase serves as donor, and the signal depends on an acceptor being close.
Description: One assay which can be used to determine bromodomain inhibitor engagement in live cells is known as NanoBRET based on bioluminescent resonance energy transfer. NanoBRET requires a nanoluciferase (Nluc) enzyme to be fused to a protein of interest at either the N- or C-terminus of the protein and expressed in cells. Secondly, a small molecule tracer must be developed which contains the protein ligand, linker, and fluorophore. […] The ligand binds to the protein, and the BODIPY fluorophore has a structural requirement to be in proximity of less than 10 nm to the Nluc enzyme. Finally, when the Nluc substrate furimazine is added, Nluc oxidatively converts the substrate into furimamide, CO2, and light.[7],[8] The energy from the bioluminescence can be transferred to the BODIPY fluorophore leading to the BRET signal. When unlabeled bromodomain inhibitors are added, the tracer is displaced resulting in a dose-dependent reduction in BRET (Figure 1A).
MS-1 was next assessed for its utility in a competition-based NanoBRET experiment for the determination of live cell bromodomain engagement.
HEK293T Cell Culture and Transfection
(§1) HEK293T cells were cultured in DMEM, 10% FBS, 5% penicillin-streptomycin and incubated at 37 °C with 5% CO 2. The NanoBRET assay was executed based on the Promega NanoBRET TE 590 Dyes technical protocol. HEK293T cells (200,000 cells/mL) were transiently transfected with each target-NanoLuc fusion vector. A 10 μg/mL solution of lipid:DNA complexes containing each fusion vector were prepared with 9.0 μg/mL of transfection carrier DNA (Promega), 1.0 μg/mL of target-NanoLuc fusion vector DNA
(§2) (Promega), and 1 mL of Opti-MEM I. FuGENE HD Transfection Reagent (Promega) was added at a concentration of 30 μL per mL of DNA mixture. The lipid:DNA complex mixture was inverted five times and allowed to incubate for 20 minutes at room temperature.
(§3) Lipid:DNA complex was then added to HEK293T cells in a 1:20 lipid:DNA complex to cells ratio. The subsequent mixture was inverted and dispensed into sterile tissue culture flasks at a density between 55,000 and 80,000 cells/cm 2. The cells were incubated for 20 – 30 hours at 37 °C, 5% CO 2. Following incubation, the transfected cells were then adjusted to a density of 200,000 cells/mL in Opti-MEM I.
General NanoBRET Assay Protocol
BRET assays were performed using white, 384-well tissue-culture-treated plates (Corning HEK293T cells were plated at 7 x 10^3 cells per well. Stock DMSO solutions of each novel BRET tracer to be tested were diluted in Tracer Dilution Buffer (Promega) to achieve a 20X concentration by adding 4:1 Tracer Dilution Buffer to 1 part 100X tracer.
BPTF-BRD BRET assays were conducted using a final MS-1 concentration of 0.5 μM, and PCAF, GCN5, and CECR2 used a final MS-1 concentration of 1 μM. Stock DMSO solutions of inhibitors were diluted to a 1,000X concentration in 100% DMSO and subsequently dissolved to a final 10X concentration in Opti-MEM. Upon addition of the tracer and inhibitor, the cells were incubated for 2 hours at 37 °C, 5% CO 2.

The conditions of data set [2]: legend calls it literature permeability data; cited from earlier work.
For data set [3], the target named is T2, BPTF-BRD (Homo sapiens, UniProt Q12830). Details: method as in PMID 34375106. The following applies: read-out: Lit. Values: BRET EC50; cited from earlier work.
Data set [4] addresses T2, BPTF-BRD. To be noted: ITC; cited from earlier work.
In data set [5] the target is class I bromodomains PCAF, GCN5, and CECR2. Set-up: method as in PMID 34515477. The following applies: off-target activity; read-out: affinities for the other class I bromodomains; cited from earlier work.
Another data set has as its target T3, GCN5-Nluc (Homo sapiens, UniProt Q92830).
T3 construct: The C-terminal full-length GCN5-Nluc construct was titrated against MS-1; host or cells: HEK293T
In words: Competition NanoBRET on full-length GCN5-Nluc with MS-1 in HEK293T cells. The data set is classed as cell-based.

A further data set concerns the target PCAF. Details: method as in PMID 27966810. The following applies: read-out: literature Kd; cited from earlier work.
In a further data set the target is T4, PCAF-Nluc (Homo sapiens, UniProt Q92831).
T4 construct: two constructs of full-length PCAF containing either N- or C-terminal Nluc; host or cells: HEK293T
Put plainly: Competition NanoBRET on full-length PCAF-Nluc with MS-1 in HEK293T cells. The data set is classed as cell-based.

The target in data set [6] is T2, BPTF-BRD. In words: Kinetic NanoBRET measurement of tracer kon, koff and Kd with the BPTF-BRD. Type of data set: cell-based. As to the method:
Figure 3. A) Tracer titration plots against BPTF-BRD-Nluc in HEK293T cells and their EC50 values. *second replicate EC50 could not be determined due to an incomplete curve. B) Kinetics data with MS-1 at varying concentrations over 25 minutes (truncated from 1 hour). C) Linear plot of kobs values at each concentration of MS-1. The kon and koff values were determined from the linear fit equation and were used to calculate the Kd. D) BI-7190 titration plots at various MS-1 concentrations to determine ideal assay window. EC50 values of BI-7190 are reported at various MS-1 concentrations. All graphical data represents mean ± standard deviation where A, B, and C are technical duplicates with n=2, and D is reported as a technical duplicate with n=3. […] (μM) of the same panel. / Panel D: the concentration row of the table is headed [BI-7190] as printed; it is unclear whether 2, 1, 0.5 and 0.25 μM are concentrations of BI-7190 or of another substance.
Before testing inhibitors, the Kd value of the tracer with the BPTF-BRD was measured kinetically by determining the kon and koff rates of the NanoBRET tracer. The Kd of the tracer enables the conversion of EC50 values to apparent Ki values. Varying concentrations of MS-1 were dosed, and measurements were taken every 35 seconds over the course of one hour (Figure 3B). The association of MS-1 with the BPTF-BRD was fast (~ 15 minutes). Data was fit using one-phase association and kobs values were determined for each concentration. […] This affinity is within two-fold of the EC50 derived for MS-1, indicating good cell permeability of the tracer. Additionally, this moderate affinity is an ideal range for future competition experiments.

Data set [7] deals with T1, BPTF-BRD-Nluc. In words: NanoBRET tracer titration against BPTF-BRD-Nluc in HEK293T cells. Type of data set: cell-based. The following applies: for EC50: tracer titrated against BPTF-BRD-Nluc, HEK293T cells, n=2.
Another data set addresses T5, Nluc-CECR2 (Homo sapiens, UniProt Q9BXF3).
T5 construct: MS-1 was titrated against the N-terminal full length Nluc-CECR2; host or cells: HEK293T
Put plainly: Competition NanoBRET on full-length Nluc-CECR2 with MS-1 in HEK293T cells. Type of data set: cell-based.

On the set-up of data set [8]: method as in PMID 34146702. To be noted: reported PAMPA data; cited from earlier work. A general note: The PAMPA barrier holds no transporters, so it reflects passive diffusion.
The conditions of data set [9]: known from the literature; cited from earlier work.
Data set [10] has as its target T2, BPTF-BRD. Put plainly: In vitro AlphaScreen competitive inhibition. The data set is classed as biochemical. To be noted: for IC50: in vitro, BPTF-BRD.
Data set [11] in a line: Caco-2 cell-based permeability assay. Type of data set: in vitro ADME. To be noted: human, Caco-2, pH 7.4, 2 h at 37 °C. As to the method:
Figure S6. MS-1 titration against Nluc-CECR2 in the presence of either DMSO (purple) or
compound 4 (black) at 100 μM.
Caco-2 Cell-Based Permeability Assay
The Caco-2 permeability assay was conducted as previously described
(PMID: 36793425). Briefly, Caco-2 cells were maintained at 37 °C in a humidified
incubator with 5% CO2, cultured in MEM supplemented with 10% FBS, 100 units/ml of
penicillin, and 100 μg/ml of streptomycin in 75 cm 2 flasks. Cells were seeded onto 96-well
Transwell inserts at a density of 0.165×10^5 cells/insert and cultured for an additional 7
days. Monolayers were washed twice with HBSS/HEPES (10 mM, pH 7.4) before starting
the permeability assay. To initiate the assay, a 10 μmol/L solution of each test compound
was added to either the apical (A) or basolateral (B) side of the inserts. The monolayers
were incubated for 2 h at 37 °C. Samples were collected from both compartments and
compound concentrations were measured by UPLC/MS (Waters; Milford, MA). All
compounds were tested in triplicates.
The apparent permeability coefficient (Papp, cm/s) of each compound in the A→B (or
B→A) direction was calculated using the equation: […]
where dQ/dt is the flux (μmol/s), A is the surface area (cm 2), and C0 is the initial
Chromatographic separation was performed on a Waters Acquity UPLC system coupled
to an SQ mass spectrometer. […]
recording was used for quantification of each compound.
(In general: Caco-2 monolayers are a common model of the intestinal barrier.)

The mark [12] stands for this setting: BRET EC50, BPTF-BRD-Nluc, 0.5 μM MS-1, HEK293T cells, n=2.

The structures appear in SMILES notation. Where two headings read alike, the source gives them in different places.

T4 sequence (Q92831 whole entry): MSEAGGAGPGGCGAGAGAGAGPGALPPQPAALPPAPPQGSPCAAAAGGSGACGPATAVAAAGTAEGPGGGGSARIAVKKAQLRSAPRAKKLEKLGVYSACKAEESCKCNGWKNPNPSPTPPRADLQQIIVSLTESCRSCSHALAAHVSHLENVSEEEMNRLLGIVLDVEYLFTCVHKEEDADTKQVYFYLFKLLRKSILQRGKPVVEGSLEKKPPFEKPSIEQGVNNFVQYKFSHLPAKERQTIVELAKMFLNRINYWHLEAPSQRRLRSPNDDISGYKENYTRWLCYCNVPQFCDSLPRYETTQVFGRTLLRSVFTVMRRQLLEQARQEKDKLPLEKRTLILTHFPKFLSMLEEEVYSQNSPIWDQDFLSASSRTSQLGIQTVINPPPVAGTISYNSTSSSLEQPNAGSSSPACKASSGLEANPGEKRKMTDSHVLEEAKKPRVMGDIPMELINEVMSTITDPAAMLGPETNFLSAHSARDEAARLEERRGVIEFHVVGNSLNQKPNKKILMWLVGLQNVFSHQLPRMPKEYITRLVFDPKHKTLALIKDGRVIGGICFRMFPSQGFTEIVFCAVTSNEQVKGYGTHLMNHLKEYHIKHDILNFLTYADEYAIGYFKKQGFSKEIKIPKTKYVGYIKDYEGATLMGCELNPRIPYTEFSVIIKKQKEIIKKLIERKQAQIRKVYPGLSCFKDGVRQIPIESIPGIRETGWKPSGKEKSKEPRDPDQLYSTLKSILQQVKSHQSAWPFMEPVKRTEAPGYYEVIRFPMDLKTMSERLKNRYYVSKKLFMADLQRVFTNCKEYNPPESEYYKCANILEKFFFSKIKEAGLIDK
T3 sequence (Q92830 whole entry): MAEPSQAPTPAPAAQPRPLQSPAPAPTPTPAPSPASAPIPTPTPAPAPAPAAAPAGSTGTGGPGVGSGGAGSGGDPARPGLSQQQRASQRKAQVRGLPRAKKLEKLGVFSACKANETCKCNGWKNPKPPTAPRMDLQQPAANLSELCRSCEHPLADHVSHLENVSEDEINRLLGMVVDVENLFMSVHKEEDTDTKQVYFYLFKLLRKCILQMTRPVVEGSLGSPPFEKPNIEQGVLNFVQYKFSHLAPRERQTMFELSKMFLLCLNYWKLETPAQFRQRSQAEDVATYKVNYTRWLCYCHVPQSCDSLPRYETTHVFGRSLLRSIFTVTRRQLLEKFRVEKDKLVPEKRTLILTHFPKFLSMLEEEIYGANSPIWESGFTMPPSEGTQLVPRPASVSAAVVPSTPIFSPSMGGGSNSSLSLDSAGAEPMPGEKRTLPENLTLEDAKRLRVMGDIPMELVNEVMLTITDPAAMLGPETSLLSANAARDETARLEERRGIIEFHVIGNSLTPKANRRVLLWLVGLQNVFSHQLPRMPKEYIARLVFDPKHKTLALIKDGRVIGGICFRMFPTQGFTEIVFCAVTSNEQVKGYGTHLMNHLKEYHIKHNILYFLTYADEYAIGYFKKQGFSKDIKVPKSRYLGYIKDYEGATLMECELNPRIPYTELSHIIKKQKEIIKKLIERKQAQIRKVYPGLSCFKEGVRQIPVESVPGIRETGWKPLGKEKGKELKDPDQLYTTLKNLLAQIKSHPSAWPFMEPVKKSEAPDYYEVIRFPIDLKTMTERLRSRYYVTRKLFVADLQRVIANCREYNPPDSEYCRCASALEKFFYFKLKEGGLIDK
T5 sequence (Q9BXF3 whole entry): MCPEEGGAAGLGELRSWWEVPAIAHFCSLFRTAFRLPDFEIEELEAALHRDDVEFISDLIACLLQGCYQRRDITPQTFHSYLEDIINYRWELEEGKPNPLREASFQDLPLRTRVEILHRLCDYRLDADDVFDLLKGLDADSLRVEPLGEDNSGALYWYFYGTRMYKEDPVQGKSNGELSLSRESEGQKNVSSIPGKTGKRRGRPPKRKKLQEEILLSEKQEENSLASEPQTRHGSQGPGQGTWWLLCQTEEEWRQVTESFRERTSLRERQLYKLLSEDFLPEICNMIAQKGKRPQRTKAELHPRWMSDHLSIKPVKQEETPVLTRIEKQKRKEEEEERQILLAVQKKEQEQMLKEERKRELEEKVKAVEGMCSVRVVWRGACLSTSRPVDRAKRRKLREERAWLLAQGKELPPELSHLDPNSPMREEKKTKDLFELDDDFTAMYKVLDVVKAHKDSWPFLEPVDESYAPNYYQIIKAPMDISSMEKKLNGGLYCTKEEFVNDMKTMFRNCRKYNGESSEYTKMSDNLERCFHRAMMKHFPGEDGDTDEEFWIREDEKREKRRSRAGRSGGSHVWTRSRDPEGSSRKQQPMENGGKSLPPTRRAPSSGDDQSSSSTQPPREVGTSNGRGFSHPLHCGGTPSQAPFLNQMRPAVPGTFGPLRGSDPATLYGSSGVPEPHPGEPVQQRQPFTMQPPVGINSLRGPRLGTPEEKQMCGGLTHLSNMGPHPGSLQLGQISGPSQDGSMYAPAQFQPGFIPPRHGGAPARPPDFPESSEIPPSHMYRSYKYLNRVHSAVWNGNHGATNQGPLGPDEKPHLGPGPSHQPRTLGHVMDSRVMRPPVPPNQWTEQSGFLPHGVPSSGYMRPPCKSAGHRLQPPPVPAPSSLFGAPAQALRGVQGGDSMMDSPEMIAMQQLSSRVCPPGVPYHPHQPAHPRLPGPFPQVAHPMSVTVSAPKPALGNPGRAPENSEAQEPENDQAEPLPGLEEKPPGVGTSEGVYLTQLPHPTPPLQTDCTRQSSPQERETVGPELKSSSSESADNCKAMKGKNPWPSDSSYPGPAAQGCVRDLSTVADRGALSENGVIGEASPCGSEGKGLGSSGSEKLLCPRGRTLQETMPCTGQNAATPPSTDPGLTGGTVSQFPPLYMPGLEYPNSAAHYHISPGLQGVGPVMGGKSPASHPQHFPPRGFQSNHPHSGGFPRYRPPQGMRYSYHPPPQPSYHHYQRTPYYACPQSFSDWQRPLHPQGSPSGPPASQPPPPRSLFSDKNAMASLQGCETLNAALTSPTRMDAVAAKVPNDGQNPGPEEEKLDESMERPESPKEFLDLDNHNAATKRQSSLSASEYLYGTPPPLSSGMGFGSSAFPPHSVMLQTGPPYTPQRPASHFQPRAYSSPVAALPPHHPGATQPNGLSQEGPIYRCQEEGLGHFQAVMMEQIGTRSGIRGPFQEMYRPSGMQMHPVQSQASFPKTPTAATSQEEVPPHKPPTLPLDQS
Protocol for GCN5-Nluc: HEK293T Cell Culture and Transfection
as §1, §2, §3
General NanoBRET Assay Protocol […]
BPTF-BRD BRET assays were conducted using a final MS-1 concentration of 0.5 μM, and PCAF, GCN5, and CECR2 used a final MS-1 concentration of 1 μM. […] BRET was then measured in a Tecan Spark plate reader following a 30 second orbital shake with an amplitude of 1 mm and frequency of 510 rpm.
(§4) DMSO control wells with no tracer and no inhibitor for background correction as well as control wells with tracer and no inhibitor to determine the maximal assay window. For both tracer and inhibitor titration plots, a BRET ratio for each concentration was calculated as acceptor response divided by donor response. […]
Protocol for Nluc-CECR2: MS-1 was titrated against the N-terminal full length Nluc-CECR2.
HEK293T Cell Culture and Transfection
as §1, §2, §3
General NanoBRET Assay Protocol […]
(§5) BPTF-BRD BRET assays were conducted using a final MS-1 concentration of 0.5 μM, and PCAF, GCN5, and CECR2 used a final MS-1 concentration of 1 μM. […] BRET was then measured in a Tecan Spark plate reader following a 30 second orbital shake with an amplitude of 1 mm and frequency of 510 rpm. Luminescence was measured using the luminescence […]
as §4
Protocol for PCAF-Nluc: First, engagement of MS-1 with full-length PCAF was investigated. MS-1 was titrated against two constructs of full-length PCAF containing either N- or C-terminal Nluc to determine the optimal position of the Nluc enzyme.
HEK293T Cell Culture and Transfection
as §1, §2, §3
General NanoBRET Assay Protocol […]
as §5, §4

As for `COC(=O)c1cccc(NC(=O)NC2CCN(c3ccnc(Nc4ccc(F)cc4)n3)C2)c1` (racemic) [AU1 (Rac)], the “inhibition of the BPTF-BRD in NanoBRET titration” value at BPTF-BRD-Nluc [1] was “neither showed full inhibition”.

For orientation: EC50 means the concentration giving half of the maximal effect. Consider `COc1cc(-c2cn(C)c(=O)c(C)c2C)ccc1C1(N2CCN(C)CC2)CC1` [BI-7190], for which, in [2], the “Caco-2 or PAMPA: Caco-2” value is reported as 21 10^-6 cm/s. For the same molecule, the EC50 on BPTF-BRD [3] is 58 nM; on BPTF-BRD-Nluc [1] (setting [12]), 66 ± 3 nM; at BPTF-BRD-Nluc [1] (EC50, printed [BI-7190]: 0.25 μM (MS-1 concentration per legend), n=3), 70 ± 10 nM; on BPTF-BRD-Nluc [1] (EC50, printed [BI-7190]: 0.5 μM (MS-1 concentration per legend), n=3) it was 100 ± 10 nM; at BPTF-BRD-Nluc [1] (EC50, printed [BI-7190]: 1 μM (MS-1 concentration per legend), n=3), 160 ± 20 nM; on BPTF-BRD-Nluc [1] (EC50, printed [BI-7190]: 2 μM (MS-1 concentration per legend), n=3), 200 ± 10 nM. Besides, the Kd on BPTF-BRD [4] is 85 nM.

Consider `Cn1ncc(Nc2ccc(CCN)cc2)c(Cl)c1=O` [BZ1], for which the “Caco-2 or PAMPA: Caco-2” value in [2] was 0.9 ± 5 10^-6 cm/s. Moreover, in data set [5], the Kd is 11 to 44 nM.

Consider `CN(C)CCCn1ccc2cc(-c3nc(S(C)(=O)=O)nc4[nH]ccc34)ccc21` [DC-BPi-11], for which, on BPTF-BRD-Nluc [1] (setting [12]), a half-maximal response (EC50) required 450 ± 20 nM.

Turning to `Cc1nnc2c3ccccc3c(N[C@@H](C)[C@H](c3ccccc3)N(C)C)nn12` [L-Moses, reference compound], the EC50 was 500 ± 60 nM at GCN5-Nluc (GCN5-Nluc, 1 μM MS-1, n=2, read-out: BRET EC50) and 280 ± 50 nM at PCAF-Nluc (PCAF-Nluc, 1 μM MS-1, n=2, read-out: BRET EC50). For the same molecule, on PCAF, the Kd is 126 nM.

In general, koff refers to a measure of how fast the partners let go of each other. High values mean a short-lived complex, low ones a long-lived complex. As a reminder, the kon is the second-order rate constant of association. High values mean fast association, low ones slow association. The molecule `Cn1ncc(Nc2ccc3c(c2)CCN(CCCCNC(=O)CCc2ccc4n2[B-](F)(F)[N+]2=C(c5ccc[nH]5)C=CC2=C4)C3)c(Cl)c1=O` [MS-1] showed a koff at BPTF-BRD [6] (linear fit of kobs vs [MS-1]) of 0.00181 ± 3e-05 s⁻¹. The kon at BPTF-BRD [6] (linear fit of kobs vs [MS-1]) was determined as 1800 ± 400 M⁻¹ s⁻¹. For the same molecule, the Kd on BPTF-BRD [6] (measured kinetically, calculated from kon and koff) is 1100 ± 300 nM. Also, the “association with the BPTF-BRD (time)” value at BPTF-BRD [6] (measurements every 35 seconds over one hour) was ~ 15 minutes. The assay window at GCN5-Nluc (1 μM MS-1, GCN5-Nluc) is about 20 mBu; on BPTF-BRD-Nluc [7] (tracer titration, BPTF-BRD-Nluc construct) it was 60 mBu; on PCAF-Nluc (1 μM MS-1, PCAF-Nluc), about 20 mBu; on Nluc-CECR2 (1 μM MS-1, Nluc-CECR2), “around 20 mBu”; on BPTF-BRD-Nluc [1] (0.5 μM MS-1, BPTF-BRD-Nluc), about 30 mBu. Moreover, the “competition of tracer by compound 4 (non-specific interactions)” value at GCN5-Nluc (GCN5-Nluc, 4 at 100 μM) is “competed away”; at BPTF-BRD-Nluc [7] (BPTF-BRD-Nluc, 25X molar excess of 4 (100 μM)), “largely competed away”; on PCAF-Nluc (PCAF-Nluc, 4 at 100 μM) it was “competed away”; at Nluc-CECR2 (Nluc-CECR2, 4 at 100 μM), “less-efficient competition”. On BPTF-BRD-Nluc [7], this molecule returned an EC50 of 600 ± 100 nM.

For the molecule `Cn1ncc(Nc2ccc3c(c2)CCN(CCCCNC(=O)CCCNC(=O)CCc2ccc4n2[B-](F)(F)[N+]2=C(c5ccc[nH]5)C=CC2=C4)C3)c(Cl)c1=O` [MS-2], the EC50 on BPTF-BRD-Nluc [7] was 3300 ± 100 nM.

For `Cn1ncc(Nc2ccc3c(c2)CCN(CCCCNC(=O)CCOCCOCCOCCOCCNC(=O)CCc2ccc4n2[B-](F)(F)[N+]2=C(c5ccc[nH]5)C=CC2=C4)C3)c(Cl)c1=O` [MS-3], the midpoint of the response on BPTF-BRD-Nluc [7], the EC50, lay at 3700 nM.

Take `Cc1c(Nc2ccc(S(=O)(=O)N3CCN(C)CC3)cc2F)nc2ccc(-c3cnn(C4CC4)c3)cn2c1=O` [NVS-BPTF-1]: in [8], the “Caco-2 or PAMPA: PAMPA” value is given as 16 10^-6 cm/s. For the same molecule, the solubility result in [9] was “poor solubility”. At BPTF-BRD-Nluc [1] (setting [12]), this molecule gave an EC50 of 400 ± 50 nM.

Turning to `COC(=O)c1cccc(NC(=O)N[C@H]2CCN(c3ccnc(Nc4ccc(F)cc4)n3)C2)c1` [S-AU1], the “inhibition of the BPTF-BRD in NanoBRET titration” value on BPTF-BRD-Nluc [1] is listed as “neither showed full inhibition”.

As to `CN(C)CCCOc1ccc(-c2cc(NCCCn3cccn3)nc(S(C)(=O)=O)n2)cc1` [TP-238], in data set [8], the “Caco-2 or PAMPA: PAMPA” value is listed as 28 10^-6 cm/s. The EC50 at Nluc-CECR2 (Nluc-CECR2, n=2, MS-1 1 μM in text and SI, 0.5 μM in Figure 6 legend, read-out: BRET EC50) came to 620 ± 60 nM; at BPTF-BRD-Nluc [1] (setting [12]), 1200 ± 100 nM.

For orientation: IC50 means the midpoint of a concentration-inhibition curve. Low values mean greater potency in that assay, high ones weaker potency in that assay. Usually Papp stands for the rate of passage across a membrane or cell layer, normalised by area and donor concentration. High values mean fast passage, low ones slow passage. Molecule `CN1CCc2cc(Nc3cnn(C)c(=O)c3Cl)ccc2C1` [compound 4] came in with an IC50 at BPTF-BRD [10] of 260 nM. Further, in data set [11], the Papp at 2 h, 10 μmol/L was found to be 47 ± 20 ×10⁻⁶ cm/s. The molecule also showed an EC50 on BPTF-BRD-Nluc [1] (setting [12]) of 900 ± 200 nM.

On to `CN1CCc2cc(Nc3ncn(C)c(=O)c3Cl)ccc2C1` [compound 5], for which, at BPTF-BRD [10] (compound 5 compared with compound 4, AlphaScreen IC50), the “fold lower affinity in vitro” value was found to be 2.5 fold. The molecule further came in with an IC50 on BPTF-BRD [10] of 660 ± 40 nM. The molecule further displayed a Papp at 2 h, 10 μmol/L in data set [11] of 70 ± 80 ×10⁻⁶ cm/s. The molecule further came in with an EC50 on BPTF-BRD-Nluc [1] (setting [12]) of 1400 ± 200 nM. The “fold lower affinity in cells” value on BPTF-BRD-Nluc [1] (compound 5 compared with compound 4, NanoBRET EC50) was 1.5 fold.

As for `CN1CCc2ccc(Nc3cnn(C)c(=O)c3Cl)cc2C1` [compound 6], the IC50 at BPTF-BRD [10] stood at 2100 nM. The same molecule had an EC50 at BPTF-BRD-Nluc [1] (setting [12]) of 4000 ± 300 nM.
